This is an account of results in the SangsterLogP compilation.

The series is described as follows: method code TLC index, from DOI: 10.1016/0223-5234(96)88245-6. Particulars: pH 7.4.
`CCOC(=O)C1=C(C)NC(C)=C(C(=O)OCC)C1c1ccc(F)cc1` yielded a logD of 1.66.
Turning to `CCOC(=O)C1=C(C)NC(C)=C(C(=O)OC)C1c1cc(F)cc(F)c1` (stereo not drawn), the logD was 1.46.
`COC(=O)C1=C(C)NC(C)=C(C(=O)OC)C1c1ccc(F)c(Br)c1` displayed a logD of 1.48. The logD values of the last two compounds are within 0.2 log units of each other.
Under `COC(=O)C1=C(C)NC(C)=C(C(=O)OC)C1c1cc(F)cc(F)c1` stands 1.15; under `COC(=O)C1=C(C)NC(C)=C(C(=O)OC)C1c1ccc(F)cc1`, 0.82; under `CCOC(=O)C1=C(C)NC(C)=C(C(=O)OCC)C1c1cccc([N+](=O)[O-])c1`, 1.6.
As for `CCOC(=O)C1=C(C)NC(C)=C(C(=O)OCC)C1c1cc(F)cc(F)c1`, the figure is 2.09; as for `COC(=O)C1=C(C)NC(C)=C(C(=O)OCCOc2ccccc2)C1c1cc(F)cc(F)c1` (stereo not drawn), 3.08.

For orientation: logD means lipophilicity at a set pH, counting ionised and neutral species.
